Measurements as given in BindingDB's records for doi:10.1021/jm9703911 (Allergan, 1997).

Key:
[1] = molecular target: T1, Retinoic acid receptor alpha (Homo sapiens, UniProt P10276); experiment: Inhibition of [3H]ATRA binding to baculovirus expressed RAR alpha receptor
T1 sequence (P10276 whole entry): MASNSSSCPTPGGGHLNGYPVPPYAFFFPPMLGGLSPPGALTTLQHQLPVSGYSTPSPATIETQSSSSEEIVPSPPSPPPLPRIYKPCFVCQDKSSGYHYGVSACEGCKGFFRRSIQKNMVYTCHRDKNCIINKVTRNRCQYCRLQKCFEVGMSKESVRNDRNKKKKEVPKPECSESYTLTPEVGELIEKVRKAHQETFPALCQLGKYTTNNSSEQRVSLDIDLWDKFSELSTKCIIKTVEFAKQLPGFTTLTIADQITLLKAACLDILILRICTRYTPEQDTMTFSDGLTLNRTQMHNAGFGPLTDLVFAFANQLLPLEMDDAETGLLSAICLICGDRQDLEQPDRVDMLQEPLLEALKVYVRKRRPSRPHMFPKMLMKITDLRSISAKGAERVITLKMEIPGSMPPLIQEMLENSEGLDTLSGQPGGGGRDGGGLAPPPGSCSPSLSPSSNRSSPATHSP

[2] = molecular target: T2, Retinoic acid receptor gamma (Homo sapiens, UniProt P13631); experiment: Inhibition of [3H]ATRA binding to baculovirus expressed RAR gamma receptor
T2 sequence (P13631 whole entry): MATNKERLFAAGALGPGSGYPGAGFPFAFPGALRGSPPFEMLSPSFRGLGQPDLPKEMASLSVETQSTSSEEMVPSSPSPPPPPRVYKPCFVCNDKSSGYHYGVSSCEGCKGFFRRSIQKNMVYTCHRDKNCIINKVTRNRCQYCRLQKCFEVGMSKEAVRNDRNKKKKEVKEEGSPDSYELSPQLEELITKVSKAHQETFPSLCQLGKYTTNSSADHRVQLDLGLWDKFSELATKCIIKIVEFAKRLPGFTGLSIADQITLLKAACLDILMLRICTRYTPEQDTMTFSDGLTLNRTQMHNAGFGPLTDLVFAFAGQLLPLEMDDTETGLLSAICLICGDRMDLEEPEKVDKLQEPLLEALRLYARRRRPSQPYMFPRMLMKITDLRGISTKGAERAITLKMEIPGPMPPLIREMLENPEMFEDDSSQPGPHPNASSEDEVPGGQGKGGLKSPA

[3] = molecular target: T3, Retinoic acid receptor beta (Homo sapiens, UniProt P10826); experiment: Inhibition of [3H]-ATRA binding to baculovirus expressed RAR beta receptor
T3 sequence (P10826 whole entry): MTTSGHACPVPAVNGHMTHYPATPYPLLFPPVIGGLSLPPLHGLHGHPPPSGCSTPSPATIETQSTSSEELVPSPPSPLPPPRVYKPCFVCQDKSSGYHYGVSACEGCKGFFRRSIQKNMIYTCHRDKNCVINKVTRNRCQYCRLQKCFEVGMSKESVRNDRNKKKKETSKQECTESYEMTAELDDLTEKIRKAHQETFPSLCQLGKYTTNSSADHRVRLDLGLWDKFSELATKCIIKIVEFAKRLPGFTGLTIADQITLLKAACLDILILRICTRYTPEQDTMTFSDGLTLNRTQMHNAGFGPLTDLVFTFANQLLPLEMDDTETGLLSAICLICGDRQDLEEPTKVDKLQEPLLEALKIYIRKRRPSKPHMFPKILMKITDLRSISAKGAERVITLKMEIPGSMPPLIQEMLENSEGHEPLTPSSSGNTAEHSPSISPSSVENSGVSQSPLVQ

Compound | Kd [1] [nM] | Kd [2] [nM] | Kd [3] [nM]
Cc1ccc(C2=CC(C)(C)Oc3c(Br)cc(C(=O)Nc4ccc(C(=O)O)c(F)c4)cc32)cc1 | 2.8 | 7260 | 320
Cc1ccc(C2=CCC(C)(C)c3ccc(C(=O)Nc4ccc(C(=O)O)c(F)c4)cc32)cc1 | 5.7 | 863 | 622
Cc1ccc(C2=CCC(C)(C)c3ccc(C(=O)Nc4ccc(C(=O)O)cc4)cc32)cc1 | 27 | 3120 | 1020
Cc1ccc(C2=CC(C)(C)Oc3c(Br)cc(C(=O)Nc4cc(F)c(C(=O)O)c(F)c4)cc32)cc1 | 1.5 | 10600 | 898
Cc1ccc(C2=CCC(C)(C)c3ccc(C(=O)Nc4cc(F)c(C(=O)O)c(F)c4)cc32)cc1 | 32 | > 30000 | 2260
